From patent publication US10092584B2 (Achillion Pharmaceuticals, Inc., priority 2015, dated 2018) come the findings set out here.

Structures can show the parent of a compound that is named as a salt. Where only a bound is given, the exact number is not on record here.

The target of this test is T1, Human Factor D (Homo sapiens, UniProt P00746).
T1 construct: purified from human serum; purchased Complement Technology, Inc; host or cells: human serum
T1 sequence (P00746 26-253): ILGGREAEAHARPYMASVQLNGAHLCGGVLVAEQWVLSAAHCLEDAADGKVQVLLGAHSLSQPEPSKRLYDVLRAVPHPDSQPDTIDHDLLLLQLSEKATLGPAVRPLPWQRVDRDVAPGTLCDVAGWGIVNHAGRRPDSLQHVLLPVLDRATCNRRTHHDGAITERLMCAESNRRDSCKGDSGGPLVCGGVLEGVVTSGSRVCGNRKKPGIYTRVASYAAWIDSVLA
Description: Human Factor D assay (Example 8). The test is classed as biochemical. The note with it: Table 3; Human Factor D 80 nM, substrate Z-L-Lys-SBzl; read-out: IC50 (Stars). In short, it runs like this:
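Factor D (from human serum) 80 nM final + cpd, 5 min RT, 50 mM Tris/1M NaCl pH 7.5; add Z-L-Lys-SBzl 100 μM and DTNB 100 μM final. IC50 by nonlinear fit of rates vs [cpd].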
On to `CC(=O)c1nn(CC(=O)N2C[Si](C)(C)C[C@H]2C(=O)Nc2cccc(Br)n2)c2ccccc12` [Compound 271, (R)-1-(2-(3-acetyl-1H-indazol-1-yl)acetyl)-N-(6-bromopyridin-2-yl)-3,3-dimethyl-1,3-azasilolidine-5-carboxamide], for which the IC50 was in the range of 1 to 10 µM. Then `NC(=O)c1nn(CC(=O)N2C[C@H](F)[C@@H](O)[C@H]2C(=O)Nc2cccc(-c3ccccc3Cl)c2F)c2ccccc12` [Compound 279, 1-(2-((2S,3S,4S)-2-(2′-Chloro-2-fluorobiphenyl-3-ylcarbamoyl)-4-fluoro-3-hydroxypyrrolidin-1-yl)-2-oxoethyl)-1H-indazole-3-carboxamide], with less than 1 µM; and `CO[C@H]1[C@@H](C(=O)Nc2cccc(-c3ccccc3Cl)c2F)N(C(=O)Cn2nc(C(N)=O)c3ccccc32)C[C@@H]1F` [Compound 289, 1-(2-((2S,3S,4S)-2-(2′-Chloro-2-fluorobiphenyl-3-ylcarbamoyl)-4-fluoro-3-methoxypyrrolidin-1-yl)-2-oxoethyl)-1H-indazole-3-carboxamide], with less than 1 µM. On to `CC(=O)c1cc(CC(=O)N2C[C@H](F)C[C@H]2C(=O)Nc2cccc(-c3ccccc3Cl)c2F)n2ccccc12` [Compound 312, (2S,4R)-1-(2-(1-Acetylindolizin-3-yl)acetyl)-N-(2′-chloro-2-fluorobiphenyl-3-yl)-4-fluoropyrrolidine-2-carboxamide], for which the IC50 is less than 1 µM. Under `CC(=O)c1cc(CC(=O)N2C[C@H](F)C[C@H]2C(=O)Nc2cccc(Br)n2)n2ccccc12` [Compound 314, (2S,4R)-1-(2-(1-Acetylindolizin-3-yl)acetyl)-N-(6-bromopyridin-2-yl)-4-fluoropyrrolidine-2-carboxamide] stands less than 1 µM; under `NC(=O)c1ccc(Cl)c(-c2cccc(NC(=O)[C@@H]3C[C@@H](F)CN3C(=O)Cn3nc(C(N)=O)c4ccccc43)c2F)c1` [Compound 315, 1-(2-((2S,4R)-2-((5′-carbamoyl-2′-chloro-2-fluoro-[1,1′-biphenyl]-3-yl)carbamoyl)-4-fluoropyrrolidin-1-yl)-2-oxoethyl)-1H-indazole-3-carboxamide], less than 1 µM; under `NC(=O)c1nn(CC(=O)N2C[C@H](F)C[C@H]2C(=O)Nc2cccc(-c3cc(F)c(F)cc3Cl)c2F)c2ccc(Br)cc12` [Compound 319, 5-bromo-1-(2-((2S,4R)-2-((2′-chloro-2,4′,5′-trifluoro-[1,1′-biphenyl]-3-yl)carbamoyl)-4-fluoropyrrolidin-1-yl)-2-oxoethyl)-1H-indazole-3-carboxamide], less than 1 µM.

Take `CC(=O)c1nn(CC(=O)N2C[C@H](F)C[C@H]2C(=O)Nc2cccc(-c3ccccc3Cl)c2F)c2cc(C)sc12` [Compound 323, (2S,4R)-1-(2-(3-Acetyl-5-methyl-1H-thieno[3,2-c]pyrazol-1-yl)acetyl)-N-(2′-chloro-2-fluoro-[1,1′-biphenyl]-3-yl)-4-fluoropyrrolidine-2-carboxamide]: the concentration for half-maximal inhibition (IC50) was less than 1 µM. Under `CC(=O)c1cn(CC(=O)N2C[C@H](F)C[C@H]2C(=O)Nc2cccc(-c3ccccc3Cl)c2F)c2cc(F)ccc12` [Compound 325, (2S,4R)-1-(2-(3-acetyl-6-fluoro-1H-indol-1-yl)acetyl)-N-(2′-chloro-2-fluoro-[1,1′-biphenyl]-3-yl)-4-fluoropyrrolidine-2-carboxamide] stands less than 1 µM; under `NC(=O)c1nn(CC(=O)N2C[C@H](F)C[C@H]2C(=O)Nc2cccc(-c3ccccc3Cl)c2F)c2cc(C(=O)O)sc12` [Compound 326, 3-carbamoyl-1-(2-((2S,4R)-2-((2′-chloro-2-fluoro-[1,1′-biphenyl]-3-yl)carbamoyl)-4-fluoropyrrolidin-1-yl)-2-oxoethyl)-1H-thieno[3,2-c]pyrazole-5-carboxylic acid], less than 1 µM.

In the case of `CC(=O)c1cn(CC(=O)N2C[C@H](F)C[C@H]2C(=O)Nc2cccc(-c3ccccc3Cl)c2F)c2cc(Cl)ccc12` [Compound 328, (2S,4R)-1-(2-(3-acetyl-6-chloro-1H-indol-1-yl)acetyl)-N-(2′-chloro-2-fluoro-[1,1′-biphenyl]-3-yl)-4-fluoropyrrolidine-2-carboxamide], the concentration for half-maximal inhibition (IC50) was less than 1 µM. In the case of `NC(=O)c1nn(CC(=O)N2C[C@H](O)C[C@H]2C(=O)Nc2cccc(-c3ccccc3Cl)c2F)c2ccccc12` [Compound 336, 1-(2-((2S,4R)-2-((2′-chloro-2-fluoro-[1,1′-biphenyl]-3-yl)carbamoyl)-4-hydroxypyrrolidin-1-yl)-2-oxoethyl)-1H-indazole-3-carboxamide], the half-inhibitory concentration (IC50) was less than 1 µM.

As to `NC(=O)c1nn(CC(=O)N2CCC[C@H]2C(=O)Nc2cccc(-c3ccccc3Cl)c2F)c2ccccc12` [Compound 337, (S)-1-(2-(2-((2′-chloro-2-fluoro-[1,1′-biphenyl]-3-yl)carbamoyl)pyrrolidin-1-yl)-2-oxoethyl)-1H-indazole-3-carboxamide], the IC50 is less than 1 µM. Then `COC(=O)c1cccc(NC(=O)[C@@H]2C[C@@H](F)CN2C(=O)Cn2nc(C(N)=O)c3ccccc32)c1F` [Compound 345, methyl 3-((2S,4R)-1-(2-(3-carbamoyl-1H-indazol-1-yl)acetyl)-4-fluoropyrrolidine-2-carboxamido)-2-fluorobenzoate], with less than 1 µM.

In the case of `Cc1sc(Cl)cc1NC(=O)[C@@H]1C[C@@H](F)CN1C(=O)Cn1nc(C(N)=O)c2ccncc21` [Compound 351], the 50% inhibitory concentration (IC50) lay within 1 to 10 µM. Under `NC(=O)c1nn(CC(=O)N2C[C@@H](F)C[C@H]2C(=O)Nc2cccc(-c3ccccc3Cl)c2F)c2ccccc12` [Compound 352, 1-(2-((2S,4S)-2-((2′-chloro-2-fluoro-[1,1′-biphenyl]-3-yl)carbamoyl)-4-fluoropyrrolidin-1-yl)-2-oxoethyl)-1H-indazole-3-carboxamide] stands less than 1 µM; under `NC(=O)c1nn(CC(=O)N2CC(F)(F)C[C@H]2C(=O)Nc2cccc(-c3ccccc3Cl)c2F)c2ccccc12` [Compound 353, (S)-1-(2-(2-((2′-chloro-2-fluoro-[1,1′-biphenyl]-3-yl)carbamoyl)-4,4-difluoropyrrolidin-1-yl)-2-oxoethyl)-1H-indazole-3-carboxamide], less than 1 µM. Then `NC(=O)c1nn(CC(=O)N2C[C@@H](O)C[C@H]2C(=O)Nc2cccc(-c3ccccc3Cl)c2F)c2ccccc12` [Compound 354, 1-(2-((2S,4S)-2-((2′-chloro-2-fluoro-[1,1′-biphenyl]-3-yl)carbamoyl)-4-hydroxypyrrolidin-1-yl)-2-oxoethyl)-1H-indazole-3-carboxamide], with less than 1 µM. Then `NC(=O)c1nn(CC(=O)N2CC(=O)C[C@H]2C(=O)Nc2cccc(-c3ccccc3Cl)c2F)c2ccccc12` [Compound 355, (S)-1-(2-(2-((2′-chloro-2-fluoro-[1,1′-biphenyl]-3-yl)carbamoyl)-4-oxopyrrolidin-1-yl)-2-oxoethyl)-1H-indazole-3-carboxamide], with less than 1 µM. For `NC(=O)c1nn(CC(=O)N2CC[C@@H](N)[C@H]2C(=O)Nc2cccc(-c3ccccc3Cl)c2F)c2ccccc12` [Compound 356, 1-(2-((2S,3R)-3-amino-2-((2′-chloro-2-fluoro-[1,1′-biphenyl]-3-yl)carbamoyl)pyrrolidin-1-yl)-2-oxoethyl)-1H-indazole-3-carboxamide], the IC50 was less than 1 µM.

As for `NC(=O)c1nn(CC(=O)N2C[C@H](F)C[C@H]2C(=O)Nc2nc3cccc(Cl)c3[nH]2)c2ccccc12` [Compound 360, 1-(2-((2S,4R)-2-((7-chloro-1H-benzo[d]imidazol-2-yl)carbamoyl)-4-fluoropyrrolidin-1-yl)-2-oxoethyl)-1H-indazole-3-carboxamide], the concentration for half-maximal inhibition (IC50) is less than 1 µM. Under `CC(=O)c1nn(CC(=O)N2C[C@H](F)C[C@H]2C(=O)Nc2cccc(-c3ccccc3Cl)c2F)c2cc(C(=O)O)sc12` [Compound 363] stands less than 1 µM. Then `CC(=O)c1nc(CC(=O)N2C[C@H](F)C[C@H]2C(=O)Nc2cccc(-c3ccccc3Cl)c2F)n2ccccc12` [Compound 372, (2S,4R)-1-(2-(1-Acetylimidazo[1,5-a]pyridin-3-yl)acetyl)-N-(2′-chloro-2-fluoro-[1,1′-biphenyl]-3-yl)-4-fluoropyrrolidine-2-carboxamide], with less than 1 µM; and `NC(=O)c1nc(CC(=O)N2C[C@H](F)C[C@H]2C(=O)Nc2cccc(-c3ccccc3Cl)c2F)n2ccccc12` [Compound 373, 3-(2-((2S,4R)-2-((2′-Chloro-2-fluoro-[1,1′-biphenyl]-3-yl)carbamoyl)-4-fluoropyrrolidin-1-yl)-2-oxoethyl)imidazo[1,5-a]pyridine-1-carboxamide], with less than 1 µM; and `NC(=O)c1nn(CC(=O)N2CC[C@@H](O)[C@H]2C(=O)Nc2cccc(-c3ccccc3Cl)c2F)c2ccccc12` [Compound 374], with less than 1 µM. With `NC(=O)c1cn(CC(=O)N2CCS[C@H]2C(=O)Nc2cccc(-c3ccccc3Cl)c2F)c2ccccc12` [Compound 375, (S)-3-(2-(3-carbamoyl-1H-indol-1-yl)acetyl)-N-(2′-chloro-2-fluoro-[1,1′-biphenyl]-3-yl)thiazolidine-2-carboxamide], the concentration for half-maximal inhibition (IC50) was less than 1 µM. Under `CC(=O)c1cn(CC(=O)N2C[C@H](F)C[C@H]2C(=O)NCc2cccc(Cl)c2F)c2cc(C(=N)N)ccc12` [Compound 382, (2S,4R)-1-(2-(3-Acetyl-6-carbamimidoyl-1H-indol-1-yl)acetyl)-N-(3-chloro-2-fluorobenzyl)-4-fluoropyrrolidine-2-carboxamide TFA] stands less than 1 µM; under `Cc1nc2c(s1)c(C(N)=O)nn2CC(=O)N1C[C@H](F)C[C@H]1C(=O)Nc1cccc(-c2ccccc2Cl)c1F` [Compound 383, 1-(2-((2S,4R)-2-(2′-Chloro-2-fluorobiphenyl-3-ylcarbamoyl)-4-fluoropyrrolidin-1-yl)-2-oxoethyl)-5-methyl-1H-pyrazolo[3,4-d]thiazole-3-carboxamide], less than 1 µM.
